# From PubChem BioAssay (NCI)
#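 Assay format: 96-well plates, 48-hour exposure. The concentration for full growth arrest is given as TGI.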
# How the values were obtained:
# Assay in all cases: DTP human tumour cell line panel, 48 h
# OVCAR-5 ovarian = system: OVCAR-5 ovarian
# U251 CNS = system: U251 CNS
# MOLT-4 leukemia = system: MOLT-4 leukemia
# IGROV1 ovarian = system: IGROV1 ovarian
# UACC-257 melanoma = system: UACC-257 melanoma
# SK-OV-3 ovarian = system: SK-OV-3 ovarian
# SN12C renal = system: SN12C renal
# COLO 205 colon = system: COLO 205 colon
# MDA-MB-231 breast = system: MDA-MB-231 breast
# NCI/ADR-RES ovarian = system: NCI/ADR-RES ovarian
# MDA-N = system: MDA-N
# SNB-19 CNS = system: SNB-19 CNS
# NCI-H522 lung = system: NCI-H522 lung
# HT29 colon = system: HT29 colon
# OVCAR-4 ovarian = system: OVCAR-4 ovarian
# HCT-116 colon = system: HCT-116 colon
# SF-295 CNS = system: SF-295 CNS
# OVCAR-3 ovarian = system: OVCAR-3 ovarian
# LOX IMVI melanoma = system: LOX IMVI melanoma
# UACC-62 melanoma = system: UACC-62 melanoma
# SR leukemia = system: SR leukemia
# TK-10 renal = system: TK-10 renal
# PC-3 prostate = system: PC-3 prostate
# RPMI-8226 leukemia = system: RPMI-8226 leukemia
# MDA-MB-435 = system: MDA-MB-435
# NCI-H460 lung = system: NCI-H460 lung
# HCT-15 colon = system: HCT-15 colon
# RXF 393 renal = system: RXF 393 renal
# HL-60(TB) leukemia = system: HL-60(TB) leukemia
# BT-549 breast = system: BT-549 breast
# MCF7 breast = system: MCF7 breast
# SF-539 CNS = system: SF-539 CNS
# 786-0 renal = system: 786-0 renal
# A549 NSCLC = system: A549 NSCLC
# DU-145 prostate = system: DU-145 prostate
# K-562 leukemia = system: K-562 leukemia
# KM12 colon = system: KM12 colon
# T-47D breast = system: T-47D breast
# CAKI-1 renal = system: CAKI-1 renal
# SK-MEL-2 melanoma = system: SK-MEL-2 melanoma
# NCI-H23 lung = system: NCI-H23 lung
# SW-620 colon = system: SW-620 colon
# EKVX NSCLC = system: EKVX NSCLC
# SF-268 CNS = system: SF-268 CNS
# UO-31 renal = system: UO-31 renal
# MALME-3M melanoma = system: MALME-3M melanoma
# M14 melanoma = system: M14 melanoma
# SK-MEL-5 melanoma = system: SK-MEL-5 melanoma
# NCI-H226 lung = system: NCI-H226 lung
# ACHN renal = system: ACHN renal
# OVCAR-8 ovarian = system: OVCAR-8 ovarian
smiles,measurement,setting,value
Oc1ccc(-c2nc3ccc(F)cc3s2)cc1,TGI,OVCAR-5 ovarian,44.7 µM
same,TGI,U251 CNS,39.9 µM
same,TGI,MOLT-4 leukemia,> 100 µM
same,TGI,IGROV1 ovarian,34.6 µM
same,TGI,UACC-257 melanoma,37.2 µM
same,TGI,SK-OV-3 ovarian,42.8 µM
same,TGI,SN12C renal,40.9 µM
same,TGI,COLO 205 colon,29.9 µM
same,TGI,MDA-MB-231 breast,49 µM
same,TGI,NCI/ADR-RES ovarian,52.8 µM
same,TGI,MDA-N,70.6 µM
same,TGI,SNB-19 CNS,51.2 µM
same,TGI,NCI-H522 lung,26.9 µM
same,TGI,HT29 colon,31.3 µM
same,TGI,OVCAR-4 ovarian,58.1 µM
same,TGI,HCT-116 colon,32.9 µM
same,TGI,SF-295 CNS,33.9 µM
same,TGI,OVCAR-3 ovarian,90.9 µM
same,TGI,LOX IMVI melanoma,39.7 µM
same,TGI,UACC-62 melanoma,34.8 µM
same,TGI,SR leukemia,53.4 µM
same,TGI,TK-10 renal,34.1 µM
same,TGI,PC-3 prostate,44.5 µM
same,TGI,RPMI-8226 leukemia,63.9 µM
same,TGI,MDA-MB-435,41.5 µM
same,TGI,NCI-H460 lung,59 µM
same,TGI,HCT-15 colon,35 µM
same,TGI,RXF 393 renal,68.2 µM
same,TGI,HL-60(TB) leukemia,51.8 µM
same,TGI,BT-549 breast,37.4 µM
same,TGI,MCF7 breast,59.1 µM
same,TGI,SF-539 CNS,34 µM
same,TGI,786-0 renal,36 µM
same,TGI,A549 NSCLC,43.1 µM
same,TGI,DU-145 prostate,30.3 µM
same,TGI,K-562 leukemia,> 100 µM
same,TGI,KM12 colon,33.8 µM
same,TGI,T-47D breast,36 µM
same,TGI,CAKI-1 renal,37 µM
same,TGI,SK-MEL-2 melanoma,34.9 µM
same,TGI,NCI-H23 lung,48.3 µM
same,TGI,SW-620 colon,> 100 µM
same,TGI,EKVX NSCLC,25.4 µM
same,TGI,SF-268 CNS,58.9 µM
same,TGI,UO-31 renal,30.1 µM
same,TGI,MALME-3M melanoma,38.5 µM
same,TGI,M14 melanoma,37.3 µM
same,TGI,SK-MEL-5 melanoma,38 µM
same,TGI,NCI-H226 lung,44.5 µM
same,TGI,ACHN renal,38.6 µM
same,TGI,OVCAR-8 ovarian,39.9 µM
